Values quoted from earlier work as cited in patent US7105537B2, “2-substituted cyclic amines as calcium sensing receptor modulators” (Bristol-Myers Squibb Company, priority 2003, dated 2006).

Columns and labels:
postmenopausal women = settings: placebo-controlled trial
[1] = intravenous bolus injection
[2] = tested on: osteopenic ovariectomized (OVX) rats; settings: oral administration, in the presence of an anti-resorptive agent

Row | Compound | reduction of the risk of non-traumatic, non-spine fractures (postmenopausal women) [%] | reduction of the risk of spine fractures (postmenopausal women) [%] | serum PTH [1] | bone mass [2]
1 | PTH peptide fragment (1–34): "the PTH peptide fragment (1–34) was shown to reduce the risk of spine fractures and non-traumatic, non-spine fractures" (SVSEIQLMHNLGKHLNSMERVEWLRKKLQDVHNF; Parathyroid hormone; UniProt P01270 32-65, looked up, fragment) | 54 | 65 | – | –
2 | CC(C)(Cc1ccc2ccccc2c1)NC[C@@H](O)COc1cccc(Cl)c1C#N [NPS-2143] | – | – | transient increase in serum PTH | increase in bone mas
